Reference: patent US5171835A, “LHRH antagonists” (The Administrators of the Tulane Educational Fund, priority 1991, dated 1992)

Tests used:
[1] = tested on: perfused rat pituitary cell system (LH response to LH-RH); test: LH-RH inhibiting activity in superfused rat pituitary cell system; type: cell-based
Experimental: Immediately after that, a mixture containing the same concentration of peptide and 3 nM LHRH is administered for 3 min. This was followed by four consecutive infusions of 3 nM LHRH for 3 min (1 ml perfusate) at 30 min intervals (30, 60, 90, 120 min). LH content of the 1 ml fractions collected is determined by radioimmunoassay (RIA).

[2] = tested on: membrane receptors of human breast cancer cells; test: Receptor binding, human breast cancer cell membranes (125I-[D-Trp6]LHRH as labelled ligand); settings: 125I-[D-Trp]6 LHRH labelled ligand; for Affinity Constant Ka 1: NB = no binding
Experimental: Affinity of peptides to rat pituitary and human breast cancer cell membranes is determined by using labelled LHRH and [D-Trp^6 ]LHRH. The assay is carried out similarly to that described by T. Kadar et al., Proc. Natl. Acad. Sci. USA, 85, 890-894 (1988) and M. Fekete et al., Endocrinology, 124, 946-955 (1989).

LH and FSH levels = test: In vivo effect on LH and FSH levels in castrated male rats; set-up: species or system rat; settings: s.c.
Experimental: (d) In vivo effect on LH and FSH levels was measured as described by L. Bokser et al. (Proc. Natl. Acad. Sci. US, accepted for publication.) Castrated male rats weighing 350-410 grams anaesthetized with urethane were injected subcutaneously with Peptide 7 and 8 in doses of 1.25 μg and 5.0 μg. Blood samples were taken from the jugular vein before injection and 1, 2, 3, 4, 6, 24 and 48 hours after the administration of peptides. Control animals were injected only with saline. LH and FSH levels were determined by specific RIAs.

[3] = tested on: ovulation in 4-day-cycling rats; test: In vivo antiovulatory activity in 4-day-cycling rats; set-up: species or system rat
Experimental: (b) In vivo antiovulatory activity of peptides is determined in 4-day-cycling rats as described [A. Corbin and C. W. Beattie, Endocr. Res. Commun., 2, 1-23 (1975)].

[4] = antagonist to LH-RH ratio 1:1, 0 min
[5] = antagonist to LH-RH ratio 1:1, 30 min
[6] = antagonist to LH-RH ratio 1:1, 60 min
[7] = antagonist to LH-RH ratio 1:1, 90 min
[8] = antagonist to LH-RH ratio 3:1, 0 min
[9] = antagonist to LH-RH ratio 3:1, 30 min
[10] = antagonist to LH-RH ratio 3:1, 60 min
[11] = antagonist to LH-RH ratio 3:1, 90 min

Row | Substance | % inhibition of LH response [1, 4] | % inhibition of LH response [1, 5] | % inhibition of LH response [1, 6] | % inhibition of LH response [1, 7] | % inhibition of LH response [1, 8] | % inhibition of LH response [1, 9] | % inhibition of LH response [1, 10] | Affinity Constant Ka 2 [2] | Affinity Constant Ka 1 [2] | % inhibition of LH response [1, 11] | inhibition of LH levels forty-eight hours after injection (LH and FSH levels; dose of 5 μg, 48 hours, p<0.05) | duration of significant decrease in the LH levels (LH and FSH levels; p<0.01) | % Blockade of Ovulation ([3]; dose 0.75 μg) | % Blockade of Ovulation ([3]; dose 1.5 μg) | % Blockade of Ovulation ([3]; dose is 0.375 μg)
1 | Ac-D-Nal(2)-D-Phe(4Cl)-D-Pal(3)-Ser-Arg-D-Lys[A2 pr(Ac)2 ]-Leu-Arg-Pro-D-Ala-NH2 [Peptide 2] | 26% | 27% | 29% | 25% | 88% | 41% | 13% | 0.32 µM⁻¹ | 16.35 nM⁻¹ |  |  |  |  |  | 
2 | Ac-D-Nal(2)-D-Phe(4Cl)-D-Pal(3)-Ser-Arg-D-Lys[A2 pr(Car)2 ]-Leu-Arg-Pro-D-Ala-NH2 [Peptide 1] | 80% | 46% | 31% |  | 95% | 59% | 55% | 3.15 µM⁻¹ | 7.07 nM⁻¹ | 52% |  |  |  |  | 
3 | Ac-D-Nal(2)-D-Phe(4Cl)-D-Pal(3)-Ser-Arg-D-Lys[A2 pr(EtCar)2 ]-Leu-Arg-Pro-D-Ala-NH2 [Peptide 4] |  |  |  |  | 91% | 50% | 42% | 0.05 µM⁻¹ | 9.71 nM⁻¹ | 41% |  |  |  |  | 
4 | Ac-D-Nal(2)-D-Phe(4Cl)-D-Pal(3)-Ser-Arg-D-Lys[A2 pr(For)2 ]-Leu-Arg-Pro-D-Ala-NH2 [Peptide 3] |  |  |  |  | 93% | 43% | 26% |  |  | 24% |  |  |  |  | 
5 | Ac-D-Nal(2)-D-Phe(4Cl)-D-Pal(3)-Ser-Tyr-D-Lys[A2 pr(CHC)2 ]-Leu-Arg-Pro-D-Ala-NH2 [Peptide 12] |  |  |  |  |  |  |  | 3.57 µM⁻¹ | 1.68 nM⁻¹ |  |  |  |  |  | 
6 | Ac-D-Nal(2)-D-Phe(4Cl)-D-Pal(3)-Ser-Tyr-D-Lys[A2 pr(Car)2 ]-Leu-Arg-Pro-D-Ala-NH2 [Peptide 7] | 57% | 51% | 45% | 41% | 96% | 78% | 70% | 5.72 µM⁻¹ | 6.27 nM⁻¹ | 58% | significant inhibition | more than 24 hours |  |  | 
7 | Ac-D-Nal(2)-D-Phe(4Cl)-D-Pal(3)-Ser-Tyr-D-Lys[A2 pr(EtCar)2 ]-Leu-Arg-Pro-D-Ala-NH2 [Peptide 9] |  |  |  |  | 90% | 72% |  | 8.57 µM⁻¹ | 30.92 nM⁻¹ |  |  |  | 20% | 50% | 
8 | Ac-D-Nal(2)-D-Phe(4Cl)-D-Pal(3)-Ser-Tyr-D-Lys[A2 pr(For)2 ]-Leu-Arg-Pro-D-Ala-NH2 [Peptide 10] |  |  |  |  |  |  |  | 2.11 µM⁻¹ | 48.29 nM⁻¹ |  |  |  | 67% | 100% | 
9 | Ac-D-Nal(2)-D-Phe(4Cl)-D-Pal(3)-Ser-Tyr-D-Lys[A2 pr]-Leu-Arg-Pro-D-Ala-NH2 [Peptide 25] | 57% | 49% | 43% |  | 85% | 69% | 62% | 1.29 µM⁻¹ | 3.49 nM⁻¹ | 57% |  |  |  |  | 
10 | Ac-D-Nal(2)-D-Phe(4Cl)-D-Pal(3)-Ser-Tyr-D-Lys[DL-A2 bu(Ac)2 ]-Leu-Arg-Pro-D-Ala-NH2 [Peptide 14] |  |  |  |  | 80% | 63% | 51% | 0.28 µM⁻¹ | 4.83 nM⁻¹ | 53% |  |  |  | 20% | 
11 | Ac-D-Nal(2)-D-Phe(4Cl)-D-Pal(3)-Ser-Tyr-D-Lys[DL-A2 bu(Car)2 ]-Leu-Arg-Pro-D-Ala-NH2 [Peptide 16] | 52% | 33% | 24% | 28% |  |  |  |  |  |  |  |  |  | 33% | 
12 | Ac-D-Nal(2)-D-Phe(4Cl)-D-Pal(3)-Ser-Tyr-D-Lys[DL-A2 bu(For)2 ]-Leu-Arg-Pro-D-Ala-NH2 [Peptide 15] | 44% | 41% | 22% | 23% | 99% | 60% | 34% |  |  | 21% |  |  |  | 100% | 25%
13 | Ac-D-Nal(2)-D-Phe(4Cl)-D-Pal(3)-Ser-Tyr-D-Lys[DL-A2 bu(LAU)2 ]-Leu-Arg-Pro-D-Ala-NH2 [Peptide 19] | 20% | 20% | 0% | 0% |  |  |  | 0 µM⁻¹ | 0 nM⁻¹ |  |  |  |  |  | 
14 | Ac-D-Nal(2)-D-Phe(4Cl)-D-Pal(3)-Ser-Tyr-D-Lys[DL-A2 bu(PRL)2 ]-Leu-Arg-Pro-D-Ala-NH2 [Peptide 18] |  |  |  |  | 90% | 71% | 58% | 6.17 µM⁻¹ | 21.18 nM⁻¹ | 54% |  |  | 75% |  | 
15 | Ac-D-Nal(2)-D-Phe(4Cl)-D-Pal(3)-Ser-Tyr-D-Lys[DL-A2 bu]-Leu-Arg-Pro-D-Ala-NH2 [Peptide 26] | 70% | 52% | 37% |  | 90% | 75% | 62% |  |  | 57% |  |  |  |  | 
16 | Ac-D-Nal(2)-D-Phe(4Cl)-D-Trp-Ser-Arg-D-Lys[A2 pr(Ac)2 ]-Leu-Arg-Pro-D-Ala-NH2 [Peptide 23] |  |  |  |  | 52% | 22% | 21% | 0.14 µM⁻¹ | 6.87 nM⁻¹ | 22% |  |  |  |  | 
17 | Ac-D-Nal(2)-D-Phe(4Cl)-D-Trp-Ser-Arg-D-Lys[A2 pr(Car)2 ]-Leu-Arg-Pro-D-Ala-NH2 [Peptide 22] |  |  |  |  | 64% | 22% | 24% | 2.67 µM⁻¹ | 4.09 nM⁻¹ |  |  |  |  |  | 
18 | Ac-D-Nal(2)-D-Phe(4Cl)-D-Trp-Ser-Arg-D-Lys[A2 pr(For)2 ]-Leu-Arg-Pro-D-Ala-NH2 [Peptide 24] | 36% | 11% | 0% | 9% | 58% | 5% | 18% |  |  | 27% |  |  |  | 50% | 
